Measured values from patent US20220105029A1, “BIODEGRADABLE CHITOSAN MICRONEEDLE PATCH FOR TRANSDERMAL DELIVERY FOR LIVESTOCK PAIN MANAGEMENT” (THE BOARD OF TRUSTEES OF THE UNIVERSITY OF ARKANSAS, priority 2020, published 2022).

Tests used:
[1] = cited from earlier work
[2] = Solubility of meloxicam in solvents; type: physicochemical

Cc1cnc(NC(=O)C2=C(O)c3ccccc3S(=O)(=O)N2C)s1 [meloxicam]
solubility in acids [1]: not dissolving in acids | solubility in dimethyl sulfoxide (DMSO) [1]: dissolves completely | solubility in acetic acid [2]: not soluble
